Reference: BindingDB's records for doi:10.1021/jm970101g (Abbott Laboratories, 1997)

Target: Endothelin-1 receptor (Rattus norvegicus) (UniProt P26684)
Test: Ability to block the ET-1-induced hydrolysis of inositol phosphate in Endothelin A receptor of MMQ cells.

Sequence of Endothelin-1 receptor (Rattus norvegicus) (P26684 whole entry, looked up): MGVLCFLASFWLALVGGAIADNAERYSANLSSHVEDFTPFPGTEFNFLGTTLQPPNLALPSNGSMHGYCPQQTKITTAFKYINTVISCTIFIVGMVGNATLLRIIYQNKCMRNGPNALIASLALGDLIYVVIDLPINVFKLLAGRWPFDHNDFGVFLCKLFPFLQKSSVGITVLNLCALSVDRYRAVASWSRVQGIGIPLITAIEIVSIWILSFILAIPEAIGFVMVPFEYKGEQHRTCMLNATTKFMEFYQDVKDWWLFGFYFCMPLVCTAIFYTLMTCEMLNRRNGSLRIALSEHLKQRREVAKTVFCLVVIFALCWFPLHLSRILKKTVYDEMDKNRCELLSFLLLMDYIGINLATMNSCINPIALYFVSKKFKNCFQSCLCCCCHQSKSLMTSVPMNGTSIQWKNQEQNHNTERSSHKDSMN

CCCN(CCN1C[C@H](c2ccc3c(c2)OCO3)[C@@H](C(=O)O)[C@@H]1c1ccc(OC)c(F)c1)S(=O)(=O)CCCCl [(2R,3R,4S)-4-Benzo[1,3]dioxol-5-yl-1-{2-[(3-chloro-propane-1-sulfonyl)-propyl-amino]-ethyl}-2-(3-fluoro-4-methoxy-phenyl)-pyrrolidine-3-carboxylic acid]
IC50: 0.55 nM
